The results in this text go back to US12667103B2, “Methods and compositions comprising herbicidally active compounds and thiocyanate compounds for controlling weed growth” (MUSTGROW BIOLOGICS CORP., priority 2020, dated 2026).

In the test the test system is weed plants. Kind of test: Field trial of weed control: individual weed plants counted on test plots after herbicide treatment. The format is in vivo. To be noted: for Incidence of weeds (average count of weed plants per test plot): MustGrow SCN 24.3 kg/acre. The method, then: A total of 8 herbicide treatments were run in a field trial as follows:
RT540®, Bayer CropScience contains 540 g/L of glyphosate as the active ingredient. MustGrow SCN consists of pure commercially purchased thiocyanate in powder form. RT540 and MustGrow SCN were diluted with 10 parts of water and applied using a backpack sprayer to each of the test plots located in central Saskatchewan at the rate indicated in Table 2. Each treatment consisted of triplicate experimental plots (4×20 ft). Weed plant growth was monitored by counting individual weed plants present on each of the test plots over a period of 5 weeks from application.

With `O=C(O)CNCP(=O)(O)O` [glyphosate, N-(phosphomethyl)glycine, reference compound], the “Effectiveness in limiting the incidence of weeds, in words” value (under the conditions of this trial, RT540 0.1-1 L/acre) was “marginally effective”.
As to thiocyanate [MustGrow SCN], the “Incidence of weeds (average count of weed plants per test plot)” value by setting is: (week 1) 8; (week 2) 15; (week 3) 75; (week 4) 155; (week 5) 174.
